Compound `O=C(O)C(=O)CC(=O)c1ccccc1OCc1ccccc1` showed a melting point of 136 to 138 °C. With `O=C(O)C(=O)CC(=O)c1cccc(OCc2ccc(F)cc2)c1` the figure was 157 to 158 °C. In the case of `O=C(O)C(=O)CC(=O)c1ccc2ccn(Cc3ccc(F)cc3)c2c1`, the melting point lay in the range of 173 to 174 °C. With `O=C(O)C(=O)CC(=O)c1cccc2c1ccn2Cc1ccc(F)cc1` the figure was 156 to 157 °C; with `O=C(O)C(=O)CC(=O)c1cccc(OCc2ccc(F)c(F)c2)c1`, 181 to 182 °C; with `COCCOc1c(OC)cc(Cc2ccccc2)cc1C(=O)CC(=O)C(=O)O`, 83 to 85 °C. In the case of `COc1cc(OCc2ccccc2)cc(C(=O)CC(=O)C(=O)O)c1`, the melting point lay within 101 to 102 °C. As to `COc1cc(Cc2ccccc2)cc(C(=O)CC(=O)C(=O)O)c1OCCSC`, the melting point was 99 to 100 °C. To `O=C(O)C(=O)CC(=O)c1cc(Cc2ccccc2)cc2c1OCCO2` belongs 154 to 155 °C; to `C=CCCCc1cc(OC)c(OC)c(C(=O)CC(=O)C(=O)O)c1`, 75 to 76 °C; to `COc1cc(CC2CC2)cc(C(=O)CC(=O)C(=O)O)c1OC`, 101 to 103 °C.

On to `O=C(O)C(=O)CC(=O)c1cc(Cc2ccccc2)cc2c1OCC(O)CO2` (racemic), for which the melting point lay within 182 to 183 °C.

The record behind these values is US6380249B1 (dated 2002).
